The results in this text go back to US20210087248A1, “MODIFIED FIBROBLAST GROWTH FACTOR 1 (FGF-1) POLYPEPTIDES WITH INCREASED BINDING AFFINITY FOR HEPARIN AND ASSOCIATED METHODS” (Florida State University Research Foundation, Inc., priority 2014, published 2021).

Each structure is given as a SMILES string.

What all share (experiment): Heparin affinity study with isothermal titration calorimetry (ITC), sucrose octasulfate titration
Common to all, as to format: binding
Common to all, as to settings: 25 °C
A general note: Isothermal titration calorimetry measures the heat released or taken up as one component is titrated into another.

Assay [1] concerns the target T1, human FGF-1 wild-type, 140 amino acid form, N-terminal six His tag (hisFGF wild-type), SEQ ID NO: 1 (Homo sapiens, UniProt P05230).
T1 construct: six His tag (N); made in house; host or cells: pET21a(+) vector; E. coli BL21(DE3) is stated for the mutants, inferred for the wild type

The target in assay [2] is human FGF-1 wild-type, no histag (no histag FGF wild-type), SEQ ID NO: 1 (Homo sapiens, UniProt P05230).
In assay [3] the target is T2, human FGF-1 variant S116R (Ser116Arg), N-terminal six His tag (hisFGF S116R), SEQ ID NO: 2 (Homo sapiens, UniProt P05230, S131R).
T2 construct: six His tag (N); made in house; host or cells: E. coli BL21(DE3), pET21a (+)
The source says: (§1) A codon-optimized synthetic gene encoding 140 amino acids form of human FGF-1 (SEQ ID NO: 1) with an N-terminal six His tag was cloned into the pET21a (+) expression vector. The His tag has shown no influence upon stability, heparin affinity and mitogenic activity. Residue Ser116 inside of the heparin binding site of FGF-1 was mutated to Arginine (SEQ ID NO: 2) and Lysine (SEQ ID NO: 3) individually to increase potential ionic interactions with the sulfonate groups in HSGAG. This was achieved using a QUICKCHANGE site-directed mutagenesis protocol.
(§2) Each mutation was confirmed by DNA sequencing. The pET21a (+)/BL21(DE3) E. coli host expression system was used to express the FGF-1 heparin affinity mutants. The expressed polypeptide was purified via sequential nickel-nitrilotriacetic acid (Ni-NTA) column (Qiagen) and heparin Sepharose resin (GE Life Sciences, Pittsburgh Pa.). Previous studies of wild-type FGF-1 have shown that the above purification procedure results in protein >99% pure and appropriate for all biophysical studies.
(§3) Purified modified FGF-1 samples of SEQ ID NOs: 2 and 3 were dialyzed into 20 mM N-(2-acetamido) iminodiacetic acid (ADA), 100 mM NaCl, pH 7.4 for an ITC study. An iTC200 microcalorimeter (MicroCal) was used for data collection. […] The ITC running parameters were: 31 injections; first injection volume 0.5 μl and the rest of the injections 1 μl; temperature 25° C.; reference power 5. The titration curve after baseline subtraction was fitted with a single ligand-binding site model by manufacturer's software (MicroCal Origin). At least three independent trials were collected for each modified FGF-1 samples.

The target in assay [4] is T3, human FGF-1 variant S116K (Ser116Lys), N-terminal six His tag (hisFGF S116K), SEQ ID NO: 3 (Homo sapiens, UniProt P05230, S131K).
T3 construct: six His tag (N); made in house; host or cells: E. coli BL21(DE3), pET21a (+)
Source text: as §1, §2, §3

Setting [5] is: single ligand-binding site model.

T3 sequence (P05230 16-155 S131K): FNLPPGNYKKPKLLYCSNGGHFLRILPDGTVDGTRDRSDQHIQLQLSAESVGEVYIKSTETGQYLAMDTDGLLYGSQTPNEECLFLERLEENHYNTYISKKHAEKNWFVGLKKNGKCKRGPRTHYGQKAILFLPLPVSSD
T2 sequence (P05230 16-155 S131R): as the sequence (P05230 16-155 S131K) above, with K116R counted along it
T1 sequence (P05230 16-155): as the sequence (P05230 16-155 S131K) above, with K116S counted along it
human FGF-1 wild-type, no histag (no histag FGF wild-type), SEQ ID NO: 1, sequence (P05230 16-155 limits assumed): as the sequence (P05230 16-155 S131K) above, with K116S counted along it

In general, Kd refers to the constant that tells how readily two partners part at equilibrium. Low readings indicate a tighter complex, high ones a looser complex. For `O=S(=O)(O)OC[C@H]1O[C@@](COS(=O)(=O)O)(O[C@H]2O[C@H](COS(=O)(=O)O)[C@@H](OS(=O)(=O)O)[C@H](OS(=O)(=O)O)[C@H]2OS(=O)(=O)O)[C@@H](OS(=O)(=O)O)[C@@H]1OS(=O)(=O)O` [sucrose octasulfate], the Kd stood at 3.94 ± 0.19 µM in assay [1] (20 mM ADA, 100 mM NaCl, pH 7.4); 3.85 ± 0.09 µM in assay [2] (20 mM ADA, 100 mM NaCl, pH 7.4); 2.46 ± 0.25 µM in assay [3] (20 mM ADA, 100 mM NaCl, pH 7.4); 3.1 ± 0.47 µM in assay [4] (20 mM ADA, 100 mM NaCl, pH 7.4). Besides, the ΔH entry in assay [1] (pH 7.4) is recorded as “(−7506) ± 95 cal/mol”; in assay [2] (pH 7.4) it was “(−6963) ± 65 cal/mol”; in assay [3] (pH 7.4) it was “(−7081) ± 217 cal/mol”; in assay [4] (pH 7.4), “(−3339) ± 57 cal/mol”. For the same molecule, the ΔS entry in assay [1] (pH 7.4) is reported as “(−0.44) ± 0.23 cal/mol/deg”; in assay [2] (pH 7.4) it was 1.42 ± 0.18 cal/mol/deg; in assay [3] (pH 7.4) it was 1.84 ± 0.92 cal/mol/deg; in assay [4] (pH 7.4), “(−6.42) ± 3.04 cal/mol/deg”. Further, the “N (site)” value in assay [1] (setting [5]) is given as 0.917 ± 0.050; in assay [2] (setting [5]), 0.980 ± 0.035; in assay [3] (setting [5]) it was 0.942 ± 0.036; in assay [4] (setting [5]), 1.012 ± 0.014.
